Results reported in US20230227453A1 (priority 2020, published 2023).

How the values were obtained:
[1] = tested on: 5HT2A sensor; format: cell-based
[2] = tested on: 5HT2A sensor; format: cell-based; remark: listed apart in the source
[3] = tested on: C57BL/6J Mice; experiment: Head twitch response (HTR) experiments; format: in vivo, mouse
Procedure: Head twitch response (HTR) experiments. All HTR experiments were performed by Transpharmation Ltd, London, UK. C57BL/6J Mice (9-10 weeks old) were obtained and housed following an IACUC approved protocol. The mice were habituated in the test cage for at least 30 min, injected intraperitoneally with compound (injection volume 5 ml/kg), returned to the empty test cage, and filmed for 20 minutes. Each video is scored for the number of head-twitches by a trained observer blinded to treatment condition.

[4] = target: T1, 5-HT2A (Homo sapiens, UniProt P28223); experiment: Serotonin 5-HT2A in vitro cellular IPOne agonism assay; format: cell-based; design: host or cells: CHO-K1; settings: CHO-K1 cells, IPOne HTRF, 60 min
Procedure: Serotonin 5-HT2A In Vitro Cellular IPOne Agonism Assay. The 5-HT2A IPOne HTRF assay was performed at Epics Therapeutics S.A. (Belgium, FAST-0505I) using conventional methods. Briefly, CHO-K1 cells expressing human recombinant 5-HT2A receptor grown to mid-log phase in culture media without antibiotics were detached with PBS-EDTA, centrifuged, and resuspended in medium without antibiotics buffer. 20,000 cells are distributed in a 96 well plate and incubated overnight at 37° C. with 5% CO2.
For agonist testing, the medium is removed and 20 μl of assay buffer plus 20 μl of test compound or reference agonist are added in each well. The plate is incubated for 60 min. at 37° C. with 5% CO2.
After addition of the lysis buffer containing IP1-d2 and anti-IP1 cryptate detection reagents, plates are incubated 1-hour at room temperature, and fluorescence ratios are measured according to the manufacturer specification, with the HTRF kit.

[5] = tested on: rat cortical neurons; experiment: Neurite Outgrowth Assay (Procedure B); format: cell-based; design: key: A: Statistically significant mean increase as a percent of DMSO control at 10 μM or less; B: No statistically significant mean increase as a percent of DMSO control at 10 μM or less; settings: primary rat neuronal cultures, 72h, vs DMSO control, 10 μM or less
Procedure: Neurite Outgrowth Assay (Procedure B). Pregnant Wistar rats (Janvier; France) were used for the study. They were delivered 6 days before their use. Upon arrival at Neurofit animal facility, they were housed one per cage and maintained in a room with controlled temperature (21-22° C.) and a reversed light-dark cycle (12h/12h; lights on: 17:30-05:30; lights off: 05:30-17:30) with food and water available ad libitum.
Female Wistar rats of 17 days gestation were killed by cervical dislocation and the fetuses were removed from the uterus. Their brains were placed in ice-cold medium of Leibovitz (L15, Gibco, Fisher bioblock, France). Cortices were dissected and meninges were carefully removed. The cortical neurons were dissociated by trypsinization for 30 min at 37° C. (trypsin-EDTA, Gibco) in presence of 0.1 mg/ml DNAse I (Roche, France). The reaction was stopped by addition of Dulbecco's Modified Eagle Medium (DMEM; Gibco) with 10% of fetal bovine serum (FBS; Gibco). The suspension was triturated with a 10-ml pipette and using a needle syringe 21G and centrifuged at 350×g for 10 min at room temperature. The pellet of dissociated cells was resuspended in a medium consisting of Neurobasal (Gibco) supplemented with 2% B27 supplement (Gibco), 0.5 mM L-Glutamine (Gibco), an antibiotic-antimicotic mixture. Viable cells were counted in a Neubauer cytometer using the trypan blue exclusion test (Sigma). Cells were seeded at a density of 10000 cells per well in 96-well plate (Costar) precoated with poly-L-lysine. Test compound at different concentrations were added to the cultures. Donepezil (positive control) was tested at 250 nM.
After 72h (3 days) of plating, cultures were fixed with paraformaldehyde in PBS (4%, Sigma) for 30 min at 4° C. Then, cells were successively permeabilized with 0.1% Triton X100 for 30 min, saturated with PBS containing 3% of BSA and were incubated 1 h with anti-beta III tubulin antibody (Sigma) at 1/10 000 in PBS containing 0.5% of BSA. Cells were washed three times with PBS containing 0.5% of BSA, and they were incubated 1 h with goat anti-mouse antibody coupled with AF488 (Invitrogen A11001) diluted at 1/1000 in PBS containing 0.5% of BSA. Finally, nuclei were staining with DAPI 1 mg/ml at 1/1000 in PBS containing 0.5% of BSA. After rinsing with PBS, the plate was filmed and neurite networks were examined and analyzed using High-Content Screening (Celllnsight, Thermo Scientific). The average number of neurites per neuron and the average total length of neurites per neuron were the main parameters analyzed. Analysis of data was performed using analysis of variance (ANOVA). The Fisher's Protected Least Significant Difference test was used for multiple comparisons. A p value≤0.05 was considered significant. The software used is StatView 5.0 from SAS Institut.

[6] = target: T1, 5-HT2A; experiment: Serotonin 5-HT2A in vitro radioligand binding competition assay; design: purchased Epics Therapeutics S.A. (Belgium) FAST-0505B; host or cells: membrane extracts; settings: radiotracer [3H]-DOI, membrane extracts
Procedure: Serotonin 5-HT2A In Vitro Radioligand Binding Competition Assay. The 5-HT2A radioligand binding competition assay was performed at Epics Therapeutics S.A. (Belgium, FAST-0505B) using conventional methods. Briefly, competition binding is performed in duplicate in the wells of a 96 well plate (Master Block, Greiner, 786201) containing binding buffer (optimized for each receptor), membrane extracts (amount of protein/well optimized for each receptor), radiotracer [^3H]-DOI (final concentration optimized for each receptor) and test compound. Nonspecific binding is determined by co-incubation with 200-fold excess of cold competitor. The samples are incubated in a final volume of 0.1 ml at a temperature and for a duration optimized for each receptor and then filtered over filter plates. Filters are washed six times with 0.5 ml of ice-cold washing buffer (optimized for each receptor) and 50 μl of Microscint 20 (Packard) are added in each well. The plates are incubated 15 min on an orbital shaker and then counted with a TopCount™ for 1 min/well.

T1 sequence (P28223 whole entry): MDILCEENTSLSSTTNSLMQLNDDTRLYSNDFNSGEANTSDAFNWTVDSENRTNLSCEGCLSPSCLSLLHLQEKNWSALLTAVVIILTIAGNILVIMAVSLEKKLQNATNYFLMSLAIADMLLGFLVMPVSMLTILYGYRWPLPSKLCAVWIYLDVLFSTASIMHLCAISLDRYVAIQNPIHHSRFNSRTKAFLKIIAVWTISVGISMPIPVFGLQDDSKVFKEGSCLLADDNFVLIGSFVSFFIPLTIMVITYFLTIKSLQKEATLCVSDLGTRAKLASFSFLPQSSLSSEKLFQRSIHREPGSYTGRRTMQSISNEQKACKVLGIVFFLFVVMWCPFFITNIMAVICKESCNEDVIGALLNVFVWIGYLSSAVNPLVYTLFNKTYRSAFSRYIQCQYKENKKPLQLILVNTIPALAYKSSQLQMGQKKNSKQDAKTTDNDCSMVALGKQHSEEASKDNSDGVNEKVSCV

Structure (SMILES)	activation of the 5HT2A sensor assay [1]	EC50 [4] [nM]	Increase in Neurite Length [5]	Increase in Neurite Number [5]	IC50 [6] [nM]	also measured
CCN(CC)C(=O)[C@@H]1C=C2c3cccc4[nH]c(Br)c(c34)C[C@H]2N(C)C1 [BOL148]	do not activate the 5HT2A sensor assay in agonist mode	–	–	–	–	competition with 5-HT in the 5HT2A sensor assay [2]: compete with 5HT binding to 5HT2A
CN(C)CCc1c[nH]c2ccccc12 [DMT, N,N-dimethyltryptamine]	activate the 5HT2A sensor assay in agonist mode	–	–	–	–	–
COc1cc(CC(C)N)c(OC)cc1I (stereo not drawn) [DOI]	activate the 5HT2A sensor assay in agonist mode	–	–	–	–	–
COc1ccc2c3c([nH]c2n1)CCN(C)CC3 [Example 1, 2-methoxy-7-methyl-5,6,7,8,9,10-hexahydropyrido[3′,2′:4,5]pyrrolo[2,3-d]azepine]	–	101 to 1000	A	A	1000 to 10000	Number of head twitches ([3]; intraperitoneal, 10 mg/kg, filmed for 20 minutes): A (10 head twitches or less at 10 mg/kg)
COc1ccc2c3c([nH]c2n1)CCNCC3 [Example 2, 2-methoxy-5,6,7,8,9,10-hexahydropyrido[3′,2′:4,5]pyrrolo[2,3-d]azepine]	–	10 to 100	A	A	101 to 1000	–
COc1ccc2c3c(n(C)c2n1)CCN(C)CC3 [Example 3, 2-methoxy-7,10-dimethyl-5,6,7,8,9,10-hexahydropyrido[3′,2′:4,5]pyrrolo[2,3-d]azepine]	–	101 to 1000	B	B	1000 to 10000	–
COc1ccc2c3c([nH]c2n1)CCN(C1COC1)CC3 [Example 4, 2-methoxy-7-(oxetan-3-yl)-5,6,7,8,9,10 hexahydropyrido[3′,2′:4,5]pyrrolo[2,3-d]azepine]	–	> 10000	B	B	> 10000	–
COc1ccc2c3c(n(C)c2n1)CCNCC3 [Example 5, 2-methoxy-10-methyl-5,6,7,8,9,10-hexahydropyrido[3′,2′:4,5]pyrrolo[2,3-d]azepine]	–	10 to 100	B	B	101 to 1000	–
COc1ccc2[nH]cc(CCN(C)C)c2c1 [Example 5-MeO-DMT]	activate the 5HT2A sensor assay in agonist mode	–	–	–	–	head-twitch response (HTR) [3]: produces a robust, dose-dependent head-twitch response
CCN(CC)CCc1c[nH]c2cc(F)ccc12 [Example 6-F-DET]	do not activate the 5HT2A sensor assay in agonist mode	–	–	–	–	competition with 5-HT in the 5HT2A sensor assay [2]: compete with 5HT binding to 5HT2A
COc1ccc2c(CCN(C)C)c[nH]c2c1 [Example 6-MeO-DMT]	do not activate the 5HT2A sensor assay in agonist mode	–	–	–	–	head-twitch response (HTR) [3]: does not produce a HTR; competition with 5-HT in the 5HT2A sensor assay [2]: compete off 5-HT
Cc1ccc2c3c([nH]c2n1)CCN(C)CC3 [Example 7, 2,7-dimethyl-5,6,7,8,9,10-hexahydropyrido[3′,2′:4,5]pyrrolo[2,3-d]azepine]	–	1000 to 10000	B	B	1000 to 10000	–
Cc1ccc2c3c([nH]c2n1)CCNCC3 [Example 8, 2-methyl-5,6,7,8,9,10-hexahydropyrido[3′,2′:4,5]pyrrolo[2,3-d]azepine]	–	101 to 1000	B	B	1000 to 10000	–
Cc1ccc2c3c([nH]c2n1)CCN(C1COC1)CC3 [Example 9, 2-methyl-7-(oxetan-3-yl)-5,6,7,8,9,10-hexahydropyrido[3′,2′:4,5]pyrrolo[2,3-d]azepine]	–	> 10000	B	B	> 10000	–
Cc1ccc2c3c(n(C)c2n1)CCN(C1COC1)CC3 [Example 11, 2,10-dimethyl-7-(oxetan-3-yl)-5,6,7,8,9,10-hexahydropyrido[3′,2′:4,5]pyrrolo[2,3-d]azepine]	–	> 10000	B	B	> 10000	–
Cc1ccc2c3c(n(C)c2n1)CCN(C)CC3 [Example 12, 2,7,10-trimethyl-5,6,7,8,9,10-hexahydropyrido[3′,2′:4,5]pyrrolo[2,3-d]azepine]	–	101 to 1000	B	B	1000 to 10000	–
Cn1c2c(c3cc(Cl)cnc31)CCNCC2 [Example 28, 3-chloro-10-methyl-5,6,7,8,9,10-hexahydropyrido[3′,2′:4,5]pyrrolo[2,3-d]azepine]	–	101 to 1000	–	–	101 to 1000	–
Cn1c2c(c3cc(Cl)cnc31)CCN(C1COC1)CC2 [Example 29, 3-chloro-10-methyl-7-(oxetan-3-yl)-5,6,7,8,9,10-hexahydropyrido[3′,2′:4,5]pyrrolo[2,3-d]azepine]	–	1000 to 10000	–	–	> 10000	–
CN1CCc2c(n(C)c3ncc(Cl)cc23)CC1 [Example 30, 3-chloro-7,10-dimethyl-5,6,7,8,9,10-hexahydropyrido[3′,2′:4,5]pyrrolo[2,3-d]azepine]	–	101 to 1000	–	–	101 to 1000	–
O=C(c1ccc(F)cc1)C1CCN(CCn2c(=O)[nH]c3ccccc3c2=O)CC1 [Ketanserin]	do not activate the 5HT2A sensor assay in agonist mode	–	–	–	–	competition with 5-HT in the 5HT2A sensor assay [2]: compete with 5HT binding to 5HT2A
CNC(C)Cc1ccc2c(c1)OCO2 [L-MDMA]	do not activate the 5HT2A sensor assay in agonist mode	–	–	–	–	–
CCN(CC)C(=O)[C@@H]1C=C2c3cccc4[nH]cc(c34)C[C@H]2N(C)C1 [LSD]	activate the 5HT2A sensor assay in agonist mode	–	–	–	–	–
CN[C@H](C)Cc1ccc2c(c1)OCO2 [R-MDMA]	do not activate the 5HT2A sensor assay in agonist mode	–	–	–	–	–
